In US20230346952A1, “CANNABINOID GLYCOSIDE PRODRUGS AND METHODS OF SYNTHESIS” (priority 2015, published 2023):

Key:
Test in all cases: biochemical
[1] = target: T1, safety screen panel of human pharmacological targets (Homo sapiens, UniProt P04150); conditions: read-out: percent inhibition: GR (h) (agonist radioligand)
T1 sequence (P04150 1-777): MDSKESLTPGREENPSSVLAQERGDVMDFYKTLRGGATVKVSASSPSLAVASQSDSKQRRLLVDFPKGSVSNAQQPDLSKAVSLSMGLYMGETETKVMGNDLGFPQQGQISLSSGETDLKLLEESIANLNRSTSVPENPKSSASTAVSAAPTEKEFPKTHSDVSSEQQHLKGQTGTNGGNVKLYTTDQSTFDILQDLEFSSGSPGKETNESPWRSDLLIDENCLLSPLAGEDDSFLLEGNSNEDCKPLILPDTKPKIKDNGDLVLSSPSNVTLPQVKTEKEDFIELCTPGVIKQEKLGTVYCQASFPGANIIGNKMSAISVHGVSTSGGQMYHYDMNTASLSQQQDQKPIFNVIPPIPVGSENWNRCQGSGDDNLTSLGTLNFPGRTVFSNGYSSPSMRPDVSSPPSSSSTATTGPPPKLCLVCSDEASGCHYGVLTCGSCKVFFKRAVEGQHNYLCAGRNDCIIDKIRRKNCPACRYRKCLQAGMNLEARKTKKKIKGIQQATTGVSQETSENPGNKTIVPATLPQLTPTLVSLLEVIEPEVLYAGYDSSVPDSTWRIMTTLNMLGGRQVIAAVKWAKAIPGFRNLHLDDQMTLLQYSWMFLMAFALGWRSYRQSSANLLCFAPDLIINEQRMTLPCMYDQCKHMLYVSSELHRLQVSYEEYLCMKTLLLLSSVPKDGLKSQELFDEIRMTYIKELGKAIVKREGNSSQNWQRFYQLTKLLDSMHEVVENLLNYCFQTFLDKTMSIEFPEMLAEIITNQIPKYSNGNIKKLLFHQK

[2] = target: T2, safety screen panel of human pharmacological targets (Homo sapiens, UniProt P35354); conditions: read-out: percent inhibition: COX2(h})
T2 sequence (P35354 18-604): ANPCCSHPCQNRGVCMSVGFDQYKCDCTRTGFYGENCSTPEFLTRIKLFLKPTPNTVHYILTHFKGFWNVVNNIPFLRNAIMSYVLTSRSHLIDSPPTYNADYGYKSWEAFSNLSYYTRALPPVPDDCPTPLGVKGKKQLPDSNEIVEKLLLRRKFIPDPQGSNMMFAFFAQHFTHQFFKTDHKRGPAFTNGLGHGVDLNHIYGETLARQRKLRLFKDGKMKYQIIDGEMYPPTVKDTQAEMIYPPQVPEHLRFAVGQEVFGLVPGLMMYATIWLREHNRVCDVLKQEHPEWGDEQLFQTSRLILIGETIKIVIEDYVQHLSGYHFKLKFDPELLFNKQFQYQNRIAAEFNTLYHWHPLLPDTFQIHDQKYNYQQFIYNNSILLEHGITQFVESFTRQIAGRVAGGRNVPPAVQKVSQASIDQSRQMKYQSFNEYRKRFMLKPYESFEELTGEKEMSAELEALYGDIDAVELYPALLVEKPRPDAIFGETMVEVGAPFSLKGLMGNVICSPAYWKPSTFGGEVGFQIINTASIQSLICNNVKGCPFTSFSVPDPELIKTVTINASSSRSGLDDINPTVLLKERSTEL

[3] = target: safety screen panel of human pharmacological targets (Homo sapiens, UniProt P41595); conditions: read-out: percent inhibition: 5-HT2B (h) (agonist radioligand)
[4] = target: safety screen panel of human pharmacological targets (Homo sapiens, UniProt P23219); conditions: read-out: percent inhibition: COX1(h)
[5] = target: safety screen panel of human pharmacological targets (Homo sapiens, UniProt Q14432); conditions: read-out: percent inhibition: PDE3A (h)
[6] = target: safety screen panel of human pharmacological targets (Homo sapiens, UniProt P21728); conditions: read-out: percent inhibition: D1 (h) (antagonist radioligand)
[7] = target: safety screen panel of human pharmacological targets (Homo sapiens, UniProt P41143); conditions: read-out: percent inhibition: delta (DOP) (h) (agonist radioligand)
[8] = target: safety screen panel of human pharmacological targets (Homo sapiens, UniProt P34972); conditions: read-out: percent inhibition: CB2 (h) (agonist radioligand)
[9] = target: safety screen panel of human pharmacological targets (Homo sapiens, UniProt P08588); conditions: read-out: percent inhibition: beta 1 (h) {agonist radioligand)
[10] = target: safety screen panel of human pharmacological targets (Homo sapiens, UniProt Q01959); conditions: read-out: percent inhibition: dopamine transporter (b) (antagonist radioligand)
[11] = target: safety screen panel of human pharmacological targets (Homo sapiens, UniProt P35372); conditions: read-out: percent inhibition: mu (MOP) (h) (agonist radioligand)
[12] = target: safety screen panel of human pharmacological targets (Homo sapiens, UniProt P43681); conditions: read-out: percent inhibition: N neuronal alpha 4beta 2 h) (agonist radioligand)
[13] = target: safety screen panel of human pharmacological targets (Homo sapiens, UniProt P20309); conditions: read-out: percent inhibition: M3 (h) (antagonist radioligand)
[14] = target: safety screen panel of human pharmacological targets (Homo sapiens, UniProt P28223); conditions: read-out: percent inhibition: 5-HT2A (h) (agonist radioligand)
[15] = target: safety screen panel of human pharmacological targets (Rattus norvegicus, UniProt P34975); conditions: read-out: percent inhibition: kappa (KOP) (agonist radioligand)
safety screen panel of human pharmacological targets (Rattus norvegicus, UniProt P34975), sequence (P34975 whole entry): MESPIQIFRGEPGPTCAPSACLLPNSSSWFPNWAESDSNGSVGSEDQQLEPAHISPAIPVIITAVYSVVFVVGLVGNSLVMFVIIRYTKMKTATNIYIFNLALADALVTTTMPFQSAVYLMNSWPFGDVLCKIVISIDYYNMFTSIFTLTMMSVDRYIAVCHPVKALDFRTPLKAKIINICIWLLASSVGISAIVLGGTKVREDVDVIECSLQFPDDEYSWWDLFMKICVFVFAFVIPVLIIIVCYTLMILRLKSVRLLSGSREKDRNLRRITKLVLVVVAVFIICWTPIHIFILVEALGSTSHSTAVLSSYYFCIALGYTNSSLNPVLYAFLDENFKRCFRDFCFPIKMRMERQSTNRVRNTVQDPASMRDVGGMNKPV

safety screen panel of human pharmacological targets (Homo sapiens, UniProt P43681), sequence (P43681 27-627): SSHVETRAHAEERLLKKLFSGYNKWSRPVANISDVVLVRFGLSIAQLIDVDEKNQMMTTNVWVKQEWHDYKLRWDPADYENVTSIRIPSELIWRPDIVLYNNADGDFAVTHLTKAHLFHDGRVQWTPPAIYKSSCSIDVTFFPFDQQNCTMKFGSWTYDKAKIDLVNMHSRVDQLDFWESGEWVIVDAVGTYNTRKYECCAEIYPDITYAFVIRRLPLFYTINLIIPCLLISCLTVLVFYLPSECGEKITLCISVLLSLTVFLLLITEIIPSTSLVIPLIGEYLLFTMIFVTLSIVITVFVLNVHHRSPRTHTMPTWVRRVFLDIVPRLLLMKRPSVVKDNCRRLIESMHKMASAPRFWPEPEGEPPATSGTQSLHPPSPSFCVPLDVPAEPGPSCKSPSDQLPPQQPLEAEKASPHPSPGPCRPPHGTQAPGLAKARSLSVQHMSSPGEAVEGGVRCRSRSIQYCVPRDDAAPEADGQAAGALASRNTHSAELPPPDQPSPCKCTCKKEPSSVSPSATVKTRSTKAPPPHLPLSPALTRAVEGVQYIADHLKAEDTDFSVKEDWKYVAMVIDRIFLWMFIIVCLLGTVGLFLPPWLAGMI
safety screen panel of human pharmacological targets (Homo sapiens, UniProt Q14432), sequence (Q14432 whole entry): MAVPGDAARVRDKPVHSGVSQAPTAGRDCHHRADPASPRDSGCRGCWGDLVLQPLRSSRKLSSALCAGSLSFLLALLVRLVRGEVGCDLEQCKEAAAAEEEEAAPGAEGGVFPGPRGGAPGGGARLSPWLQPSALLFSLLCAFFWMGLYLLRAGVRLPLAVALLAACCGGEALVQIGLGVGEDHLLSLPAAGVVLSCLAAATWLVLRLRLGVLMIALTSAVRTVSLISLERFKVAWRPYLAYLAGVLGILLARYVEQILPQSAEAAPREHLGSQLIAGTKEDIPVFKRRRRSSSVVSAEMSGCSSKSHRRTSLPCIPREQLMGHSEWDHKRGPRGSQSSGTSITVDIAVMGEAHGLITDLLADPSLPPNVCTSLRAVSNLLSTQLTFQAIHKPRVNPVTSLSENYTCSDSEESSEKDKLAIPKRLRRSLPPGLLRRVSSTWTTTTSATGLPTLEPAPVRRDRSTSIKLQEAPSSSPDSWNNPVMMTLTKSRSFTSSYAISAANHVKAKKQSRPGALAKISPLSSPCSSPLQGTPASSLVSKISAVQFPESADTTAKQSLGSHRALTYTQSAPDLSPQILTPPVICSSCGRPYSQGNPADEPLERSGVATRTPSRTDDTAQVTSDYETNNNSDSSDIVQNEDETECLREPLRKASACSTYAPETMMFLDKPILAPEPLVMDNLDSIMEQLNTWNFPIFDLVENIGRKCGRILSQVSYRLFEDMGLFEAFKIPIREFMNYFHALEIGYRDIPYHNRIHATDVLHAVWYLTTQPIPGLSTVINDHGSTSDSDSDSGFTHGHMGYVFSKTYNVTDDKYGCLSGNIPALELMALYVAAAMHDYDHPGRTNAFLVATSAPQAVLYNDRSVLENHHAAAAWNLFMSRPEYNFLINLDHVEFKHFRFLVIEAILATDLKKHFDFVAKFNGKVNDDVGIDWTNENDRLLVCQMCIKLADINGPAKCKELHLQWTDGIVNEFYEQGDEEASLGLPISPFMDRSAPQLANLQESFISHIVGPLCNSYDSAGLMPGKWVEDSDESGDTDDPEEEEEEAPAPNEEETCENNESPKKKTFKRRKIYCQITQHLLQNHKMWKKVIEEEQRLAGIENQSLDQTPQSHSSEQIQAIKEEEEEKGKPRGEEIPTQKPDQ
safety screen panel of human pharmacological targets (Homo sapiens, UniProt P41143), sequence (P41143 whole entry): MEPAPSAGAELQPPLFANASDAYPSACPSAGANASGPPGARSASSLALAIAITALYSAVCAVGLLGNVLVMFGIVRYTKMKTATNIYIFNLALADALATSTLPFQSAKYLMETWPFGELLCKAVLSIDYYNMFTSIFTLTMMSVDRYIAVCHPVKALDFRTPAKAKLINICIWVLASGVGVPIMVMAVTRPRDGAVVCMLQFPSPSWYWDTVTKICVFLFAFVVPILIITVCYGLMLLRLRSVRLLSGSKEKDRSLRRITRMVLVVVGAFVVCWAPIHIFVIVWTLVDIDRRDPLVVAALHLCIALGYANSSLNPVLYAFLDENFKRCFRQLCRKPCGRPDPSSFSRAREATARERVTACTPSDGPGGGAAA
safety screen panel of human pharmacological targets (Homo sapiens, UniProt P21728), sequence (P21728 whole entry): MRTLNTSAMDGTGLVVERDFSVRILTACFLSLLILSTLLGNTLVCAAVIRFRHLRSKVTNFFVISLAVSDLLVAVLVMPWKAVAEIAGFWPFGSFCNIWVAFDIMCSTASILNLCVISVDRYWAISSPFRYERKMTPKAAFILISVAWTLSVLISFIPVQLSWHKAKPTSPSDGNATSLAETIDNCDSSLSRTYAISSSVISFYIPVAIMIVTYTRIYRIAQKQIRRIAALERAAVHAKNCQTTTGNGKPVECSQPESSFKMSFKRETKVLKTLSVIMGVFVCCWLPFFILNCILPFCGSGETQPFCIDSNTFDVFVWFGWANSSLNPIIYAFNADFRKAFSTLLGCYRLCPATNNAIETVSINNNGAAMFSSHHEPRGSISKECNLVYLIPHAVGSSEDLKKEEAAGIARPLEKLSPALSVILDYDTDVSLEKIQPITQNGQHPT
safety screen panel of human pharmacological targets (Homo sapiens, UniProt P34972), sequence (P34972 whole entry): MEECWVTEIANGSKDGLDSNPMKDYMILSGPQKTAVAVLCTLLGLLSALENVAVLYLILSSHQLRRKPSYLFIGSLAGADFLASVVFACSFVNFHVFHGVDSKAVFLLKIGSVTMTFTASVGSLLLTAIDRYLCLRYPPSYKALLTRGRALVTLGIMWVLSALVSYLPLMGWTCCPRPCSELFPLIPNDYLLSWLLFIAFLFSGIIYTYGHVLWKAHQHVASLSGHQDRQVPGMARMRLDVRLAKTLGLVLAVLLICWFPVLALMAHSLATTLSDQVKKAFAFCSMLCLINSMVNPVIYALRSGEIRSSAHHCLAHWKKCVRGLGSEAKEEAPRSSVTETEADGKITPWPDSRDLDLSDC
safety screen panel of human pharmacological targets (Homo sapiens, UniProt Q01959), sequence (Q01959 whole entry): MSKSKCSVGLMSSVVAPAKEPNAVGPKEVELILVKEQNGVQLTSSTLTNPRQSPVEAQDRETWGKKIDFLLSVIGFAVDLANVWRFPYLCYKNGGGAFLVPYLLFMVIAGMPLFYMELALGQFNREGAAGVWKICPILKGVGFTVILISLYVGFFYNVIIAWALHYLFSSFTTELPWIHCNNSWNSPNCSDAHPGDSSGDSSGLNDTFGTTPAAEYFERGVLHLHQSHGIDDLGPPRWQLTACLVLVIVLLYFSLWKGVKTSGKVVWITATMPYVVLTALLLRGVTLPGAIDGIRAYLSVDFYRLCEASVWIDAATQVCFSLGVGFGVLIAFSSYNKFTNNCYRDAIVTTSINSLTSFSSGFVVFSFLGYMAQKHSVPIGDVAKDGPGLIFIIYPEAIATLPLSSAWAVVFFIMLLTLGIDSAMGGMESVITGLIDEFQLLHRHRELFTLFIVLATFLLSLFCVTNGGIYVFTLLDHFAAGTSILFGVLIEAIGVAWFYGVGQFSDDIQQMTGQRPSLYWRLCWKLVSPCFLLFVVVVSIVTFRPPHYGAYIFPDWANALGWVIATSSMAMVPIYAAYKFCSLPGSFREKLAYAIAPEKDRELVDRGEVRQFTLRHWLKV
safety screen panel of human pharmacological targets (Homo sapiens, UniProt P41595), sequence (P41595 whole entry): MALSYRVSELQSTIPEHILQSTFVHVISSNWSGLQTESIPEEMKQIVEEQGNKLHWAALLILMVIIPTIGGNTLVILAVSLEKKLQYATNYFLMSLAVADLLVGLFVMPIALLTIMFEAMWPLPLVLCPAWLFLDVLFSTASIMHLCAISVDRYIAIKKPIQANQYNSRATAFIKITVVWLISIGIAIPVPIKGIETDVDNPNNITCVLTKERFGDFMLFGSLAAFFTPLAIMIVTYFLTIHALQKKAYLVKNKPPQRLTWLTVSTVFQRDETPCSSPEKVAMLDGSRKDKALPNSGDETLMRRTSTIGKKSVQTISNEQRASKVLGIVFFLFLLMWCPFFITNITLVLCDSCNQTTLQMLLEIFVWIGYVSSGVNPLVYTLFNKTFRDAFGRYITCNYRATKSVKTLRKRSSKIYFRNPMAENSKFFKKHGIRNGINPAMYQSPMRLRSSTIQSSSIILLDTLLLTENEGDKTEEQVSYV
safety screen panel of human pharmacological targets (Homo sapiens, UniProt P23219), sequence (P23219 24-599): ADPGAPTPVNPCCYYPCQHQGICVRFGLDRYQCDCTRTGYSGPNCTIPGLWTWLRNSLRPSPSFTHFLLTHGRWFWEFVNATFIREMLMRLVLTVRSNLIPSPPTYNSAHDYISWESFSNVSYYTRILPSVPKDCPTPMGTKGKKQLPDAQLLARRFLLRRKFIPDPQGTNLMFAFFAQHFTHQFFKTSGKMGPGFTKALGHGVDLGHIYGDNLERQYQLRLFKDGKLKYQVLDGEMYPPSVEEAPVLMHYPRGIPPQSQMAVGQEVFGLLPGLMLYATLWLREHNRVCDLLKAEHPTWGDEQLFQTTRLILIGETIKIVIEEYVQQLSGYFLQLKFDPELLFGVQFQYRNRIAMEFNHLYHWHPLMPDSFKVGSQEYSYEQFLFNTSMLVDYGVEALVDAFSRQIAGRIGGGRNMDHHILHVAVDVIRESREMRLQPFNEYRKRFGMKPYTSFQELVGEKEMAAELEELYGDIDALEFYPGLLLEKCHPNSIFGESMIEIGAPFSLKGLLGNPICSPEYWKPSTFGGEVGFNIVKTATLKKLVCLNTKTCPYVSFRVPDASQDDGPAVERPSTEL

SMILES	inhibition at 10 µM [1]	inhibition at 10 µM [2]	inhibition at 10 µM [3]	inhibition at 10 µM [4]	inhibition at 10 µM [5]	inhibition at 10 µM [6]	inhibition at 10 µM [7]	inhibition at 10 µM [8]	inhibition at 10 µM [9]	inhibition at 10 µM [10]	inhibition at 10 µM [11]	inhibition at 10 µM [12]	inhibition at 10 µM [13]	inhibition at 10 µM [14]	inhibition at 10 µM [15]
CCCCCc1cc(O)c2c(c1)OC(C)(C)[C@@H]1CCC(C)=C[C@@H]21 [VB301, Δ9-Terahydrocannabinol, reference compound]	20%	-6%	90%	9%	-4%	75%	43%	97%	1%	101%	89%	1%	23%	92%	92%
CCCCCc1cc(O[C@@H]2O[C@H](CO)[C@@H](O)[C@H](O)[C@H]2O)c2c(c1)OC(C)(C)[C@@H]1CCC(C)=C[C@@H]21 [VB302, Δ9THC-1-O-glucopyranoside]	-8%	-20%	-5%	30%	-44%	4%	5%	22%	7%	18%	-5%	7%	11%	11%	20%
CCCCCc1cc(O[C@@H]2O[C@H](CO[C@@H]3O[C@H](CO)[C@@H](O)[C@H](O)[C@H]3O)[C@@H](O[C@@H]3O[C@H](CO)[C@@H](O)[C@H](O)[C@H]3O)[C@H](O)[C@H]2O)c2c(c1)OC(C)(C)[C@@H]1CCC(C)=C[C@@H]21 [VB311]	12%	8%	-7%	11%	-6%	37%	0%	17%	0%	28%	5%	-1%	-5%	4%	4%
